Strand notation (5' to 3'): a small letter for the sugar, then the base; units joined by * are phosphorothioate-linked, units joined directly phosphodiester-linked; [ ] holds rarer units or linkages, { } end groups; capitals alone tell only the bases. d = 2'-deoxy (DNA)
Columns and labels:
auto-reactive T cells = settings: cited from earlier work
[1] = system: experimental autoimmune encephalomyelitis; settings: mouse model; cited from earlier work
[2] = system: PDCs and allogeneic naive CD4+ T cells; test: In vitro priming of naive CD4+ T cells by allogeneic PDCs: CD4+CD25+Foxp3+ Treg generation (flow cytometry); assay type: cell-based, human
Excerpt: PDC, B, and T cell isolation. Human PBMC were isolated under IRE-approved protocols from apheresis products of healthy blood donors (Memorial Blood Centers of Minnesota, Minneapolis, Minn.) by Ficoll-Paque density gradient centrifugation. Plasmascytoid dendritic cells (PDCs) were isolated from PBMC using BDCA-4 cell isolation kits and the MACS system, followed by staining and sorting to collect purified Lin-CD11c-CD123+ PDCs, as reported previously (Moseman et al., J Immunol 2004; 173:4433-4442). […] cells were isolated from PBMC using CD4 T cell isolation kits followed by positive selection with CD45RA microbeads. […] B cells were isolated from PBMC with CD19 microbeads and the MACS system to greater than 98% purity of CD19+ B cells. All cell isolations kits and microbeads were from Miltenyi Biotec (Bergisch Gladbach, Germany). Reagents. Phosphorothioate-modified type-A CpG ODN 2216: […] NO:2), type-B CpG ODN 2006: […] NO:3) (sequences are shown 5'-3'; small letters represent phosphorothioate linkage; capital letters represent phosphodiester linkage 3' of the base; bold represents CpGdinucleotides) were from Integrated DNA Technologies (Coralville, Iowa), diluted in PBS, and used at a final concentration of 1 microgran per milliliter (μg/ml). […] Kynurenine (L-KYN, Sigma-Aldrich) was used at a final concentration of 50 μM. In vitro priming of naive CD4+ T cells. CD4+CD45RA+ naive T cells were primed with allogeneic PDCs or irradiated B cells (30 Gy) at a 10:1 ratio (e.g., 2×10^6 naive CD4+ T cells plus 2×105 PDCs per well in 24-well plates) with ODN 2216 or ODN 2006 present in RPMI 1640 medium supplemented with 10% human AB serum. 1 MT and/or KYN were added into CpG ODN-PDC or CpG ODN-B cell mediated naive CD4+ T cell priming cultures as indicated. […] After 7 days, primed T cells in cultures were harvested, assessed for their surface phenotype, intracellular Foxp3 expression, and their function in MLR assays. […] Mean fluorescence intensity (MFI) and positive cell percentages of stained cells were determined by flow cytometry.

PDCs = test: Surface expression of CD80, CD86, HLA-DR on PDCs (flow cytometry); assay type: cell-based, human; settings: CpG ODN stimulation 48 hours
Excerpt: PDC, B, and T cell isolation. Human PBMC were isolated under IRE-approved protocols from apheresis products of healthy blood donors (Memorial Blood Centers of Minnesota, Minneapolis, Minn.) by Ficoll-Paque density gradient centrifugation. Plasmascytoid dendritic cells (PDCs) were isolated from PBMC using BDCA-4 cell isolation kits and the MACS system, followed by staining and sorting to collect purified Lin-CD11c-CD123+ PDCs, as reported previously (Moseman et al., J Immunol 2004; 173:4433-4442). CD4+CD45RA+ naïve T cells were isolated from PBMC using CD4 T cell isolation kits followed by positive selection with CD45RA microbeads. The purity of naïve CD4+ T cells was greater than 95% for CD4+CD45RA+ expression and less than 0.5% for CD25+ expression. B cells were isolated from PBMC with CD19 microbeads and the MACS system to greater than 98% purity of CD19+ B cells. All cell isolations kits and microbeads were from Miltenyi Biotec (Bergisch Gladbach, Germany).
Flow Cytometry. Fluorescent antibodies (Abs) against human CD3, CD4, CD11c, CD19, CD25, CD40, CD45, CD45RA, CD45RO, CD80, CD86, CD123, HLA-DR, lineage (Lin) markers, and isotype control Abs were from BD Biosciences (San Diego, Calif.). […] Mean fluorescence intensity (MFI) and positive cell percentages of stained cells were determined by flow cytometry.

IDO protein in PDCs = test: Western blot for IDO protein in cultured PDCs; assay type: cell-based, human; settings: 48 hours culture with CpG ODN
Description: Western blots. Protein lysates were prepared from 2×10^5 fresh or cultured PDCs or B cells. Western blot was performed with antibody specific for IDO protein

OT-I and A1 T cells = test: Bystander-suppression assays (TDLN IDO+ DCs, OT-I, Tregs, A1 bystander cells); assay type: cell-based, mouse
Description: Isolation of tumor-draining lymph node DCs.
Bystander-suppression assays. All experiments were repeated 3-5 times unless otherwise indicated. OT-I cells were sorted as CD8^+ spleen cells, gated on the CD11c^NEGB220^NEG fraction to exclude DCs. Sorted DCs from TDLN were mixed with 1×10^5 responder cells at a 1:40 ratio in V-bottom culture wells (Nunc). […] Sorted CD4^+ A1 cells (1×10^5) and CD11c^+ DCs (1:40 ratio) from normal CBA spleen were added as bystander cells. […] For transwell assays, 96-Multiwell insert plates (1 uM pore size, BD Falcon) were used and the number of cells in all groups was doubled.
Feeder layer. Plasmacytoid DCs and Tregs have been reported to require survival factors to maintain viability and function in vitro.
Readouts for T cell proliferation. […] After 72 hours, assays were stained for CD4 vs CD8 and CFSE fluorescence analyzed gated on CD4^+ (A1) and CD8^+ (OT-I) populations.
Anti-CD3 proliferation and preactivation assays. […] For pre-activation studies, 2×10^4 Tregs were cultured with 1×10^5T-depleted spleen cells plus 0.1 ug/ml αCD3 antibody and 200 U/ml IL-2 (R&D Systems) for 48 hours.

BM3 T cells [3] = test: Ex vivo T cell suppression assays with sorted Tregs from treated mice; assay type: in vivo, mouse
Description: (§1) CpG Oligonucleotides. CpG-ODNs (CpG no. 1826, […]; (SEQ ID NO:4) and sequence matched non-CpG-B no. 2138, […] (SEQ ID NO:5)) with fully phosphorothioate backbones were purchased from Coley Pharmaceuticals. Mice were injected with relatively high doses of ODNs (50 μg/mouse, i/v) as described (Mellor et al. J Immunol 2005; 175:5601-5605).
1-methyl-[D]-tryptophan (1 mT). 1 mT (catalog number 45, 248-3, Sigma) was prepared as a 20 mM stock solution in 0.1 N NaOH, adjusted to pH 7.4, and stored at −20° C. protected from light. For in vitro use, 1 mT was added to MLRs to a final concentration of 100 μM. For in vivo treatment, slow-release polymer pellets (*5 mg/day) containing 1 mT or vehicle alone were inserted under the dorsal skin as described (Munn et al. Science 1998; 281:1191-1193) 24 hours before CpG treatment.
Preparative flow cytometry to sort CD4+ T cells subsets. CD4+ T cell subsets were purified using a Mo-Flo cytometer as described (Mellor et al. J Immunol 2005; 175:5601-5605; Munn et al. Immunity 2005; 22:1-10).
Ex vivo T cell suppression assays. Suppression assays were performed by adding sorted CD4+ cells to T cell proliferation assays (72 hour thymidine incorporation assays) containing responder H-2K^b-specific splenocytes from BM3 TCR transgenic mice (nylon-wool enriched) and CD11c+ splenocytes (AutoMacs enriched) from CBK (H-2K^b transgenic CBA) mice prepared as described (Mellor et al. J Immunol 2005; 175:5601-5605).

BM3 T cells [4] = test: Co-adoptive transfer of Tregs and BM3 T cells into CBK recipients; assay type: in vivo, mouse; settings: 96 hours
Description: Co-Adoptive Transfer. Purified (Mo-Flo sorted) CD4+CD25+ Tregs were prepared from spleens of CBK donor mice treated 24 hours previously with either 50 μg CpG or non-CpG. Tregs (1×10^6/recipient) were mixed with nylon-wool enriched BM3 responder T cells (5×10^6/recipient) and co-injected into CBK recipients (2-3 mice/group). Positive controls were CBK mice receiving BM3 T cells without Tregs; negative controls were CBA mice (lacking target antigen) receiving BM3 T cells. After 96 hours, mice were sacrificed and spleen cells stained with antibodies against CD8 (PerCP), CD25 (APC), H2K^b (PE) and biotinylated Ti98 (BM3 anti-clonotypic antibody, visualized with streptavidin APC (Tarazona et al. (1996) International Immunology 8:351-358). Except for Ti98, all antibodies were from Pharmingen (San Diego, Calif.).

splenic Tregs = test: Flow cytometry of CHOP and FoxP3 in splenic Tregs of treated mice; assay type: in vivo, mouse; settings: wild-type mice
Description: as §1
Analytical flow cytometry. Intracellular CHOP staining was performed as described (Munn et al. (2005) Immunity 22:1-10), using antibody sc-7351 (Santa Cruz Biotechnology, Santa Cruz, Calif.).

Lewis Lung carcinoma = Lewis Lung carcinoma model; cited from earlier work
[5] = system: P815 transfected with IDO; settings: concomitant administration; cited from earlier work
[6] = system: primed CD4+ T cells / naive CD4+ T cells; test: MLR assays of function of CpG-PDC or CpG-B cell primed CD4+ T cells; assay type: cell-based, human; settings: KYN added to priming MLRs containing 1MT
Description: In vitro priming of naive CD4+ T cells. CD4+CD45RA+ naive T cells were primed with allogeneic PDCs or irradiated B cells (30 Gy) at a 10:1 ratio (e.g., 2×10^6 naive CD4+ T cells plus 2×105 PDCs per well in 24-well plates) with ODN 2216 or ODN 2006 present in RPMI 1640 medium supplemented with 10% human AB serum. 1 MT and/or KYN were added into CpG ODN-PDC or CpG ODN-B cell mediated naive CD4+ T cell priming cultures as indicated. In some experiments, blocking Abs against CD80, CD86, HLA-DR or the control IgG Ab (R&D Systems, Minneapolis, Minn.) were added to CpG-PDC-mediated naive CD4+ T cell priming cultures at a final Ab concentration ranging from 0.1 to 10 μg/ml. After 7 days, primed T cells in cultures were harvested, assessed for their surface phenotype, intracellular Foxp3 expression, and their function in MLR assays.
MLR assays. […] In all T cell proliferation assays, plates were incubated at 37° C. for 5 days and pulsed with 1 μCi of 3H-thymidine per well for the last 18 hours before harvesting. All determinations were carried out in triplicate and 3H-thymidine incorporation was determined.

In the case of `Nc1c(O)cccc1C(=O)O` [3-hydroxyanthranilic acid], the “inflammatory cytokine production by auto-reactive T cells” value (auto-reactive T cells) is listed as “inhibit inflammatory cytokine production” and the “paralysis in experimental autoimmune encephalomyelitis” value [1] is listed as “reverse paralysis”.
In the case of “ODN 2216: Phosphorothioate-modified type-A CpG ODN gGGGACGATCGTCgggggG (SEQ ID NO:2) (DNA dG*dGdGdGdAdCdGdAdTdCdGdTdCdG*dG*dG*dG*dG*dG)”, the “frequency of PDC-induced CD4+CD25+Foxp3+ Tregs” value ([2]; day 7 of cultures, CpG ODN 1 μg/ml, mean±SD, 5.7±3.1% without CpG ODN) is reported as 21.6±5.2%, the “cell surface expression of CD80, CD86, HLA-DR on PDCs” value (PDCs) is reported as “upregulate cell surface expression” and the “IDO expression of PDCs during culture” value (IDO protein in PDCs) is reported as “sustained their IDO expression”.
For `N[C@@H](Cc1c[nH]c2ccccc12)C(=O)O` [tryptophan], the “IDO-induced bystander suppression, effect of added agent” value (OT-I and A1 T cells; not in transwells, thymidine incorporation/CFSE, tryptophan 10× (250 uM)) was “abrogated suppression”.
With “non-CpG: sequence matched non-CpG ODN TCCATGAGCTTCCTGAGCTT (SEQ ID NO:5) (DNA dT*dC*dC*dA*dT*dG*dA*dG*dC*dT*dT*dC*dC*dT*dG*dA*dG*dC*dT*dT)” the “suppressor functions of purified Tregs from IDO-KO mice” value (BM3 T cells [3]; IDO-KO mice) was “no significant increase in suppressor functions”, the “suppression of BM3 T cell proliferation by purified Tregs from treated mice” value (BM3 T cells [3]; mice treated 24 hours, 50 μg/mouse i/v, IDO-WT, 72 hour thymidine incorporation) was “did not suppress BM3 proliferation” and the “spleen tissue pathology after co-transfer of Tregs from treated donor mice” value (BM3 T cells [4]) was “did not prevent extensive tissue pathology”. For the same compound, the “clonal expansion of BM3 T cells in vivo after co-transfer of Tregs from treated donor mice” value (BM3 T cells [4]; donors treated 24 hours with 50 μg) was “did not inhibit” and the “number of CHOP+ Tregs over basal levels” value (splenic Tregs) was “only slightly increased”.
For `COc1ccc(C=CC(=O)Nc2ccccc2C(=O)O)cc1OC` [3,4-DAA, N-(3,4,-Dimethoxycinnamoyl)anthranilic acid], the “inflammatory cytokine production by auto-reactive T cells” value (auto-reactive T cells) is listed as “inhibit inflammatory cytokine production” and the “paralysis in experimental autoimmune encephalomyelitis” value [1] is listed as “reverse paralysis”.
In the case of `Cn1cc(C[C@H](N)C(=O)O)c2ccccc21` [Inhibitor 1-MT, 1-methyl-tryptophan], the tumor outgrowth (Lewis Lung carcinoma) is given as “significantly delayed tumor outgrowth” and the “IDO-mediated prevention of P815 rejection by pre-immunized hosts” value [5] is given as “substantially reversed”.
In the case of `Nc1ccccc1C(=O)CC(N)C(=O)O` (stereo not shown) [KYN, Kynurenine], the “CD4+CD25+Foxp3+ Treg generation in priming MLRs containing 1MT” value ([2]; KYN 50 μM added with 1MT 250 μM, ODN 2216-PDC, day 7) is reported as “restored CD4+CD25+Foxp3+ Treg generation”, the “functional suppressor activity of PDC-primed T cells in MLR” value [6] is reported as “restored the generation of functional suppressor activity” and the “hyporesponsiveness of primed T cells to alloantigen stimulation in MLR” value [6] is reported as “restored”. For the same compound, the “bystander suppression with excess kynurenine when IDO blocked with 1MT” value (OT-I and A1 T cells; 1MT+25 uM kynurenine) was “did not recapitulate suppression”.

— patent US20120142750A1, “INDOLEAMINE 2,3-DIOXYGENASE PATHWAYS IN THE GENERATION OF REGULATORY T CELLS” (Regents of the University of Minnesota, priority 2005, published 2012)
